{"source": "patent US12448605B2", "about": "“Encapsulation and cardiac differentiation of hiPSCs in 3D PEG-fibrinogen hydrogels” (Auburn University, priority 2013, dated 2025)", "test_system": "spontaneously contracting 3D cultured CMs", "experiment": "Calcium transient and spontaneous beating rate of dissociated, un-paced CMs in response to isoproterenol", "format": "cell-based, human", "method": "To immobilize cells for proper calcium transient acquisition, glass coverslips (21 mm, No. 1, Fisher Scientific) were coated with PDMS using a WS-400-6NPP spin coater (Laurell Technologies Corporation). Briefly, SLYGARD 184 silicone elastomer curing agent was mixed with SLYGARD 184 elastomer base (Dow Corning Corporation) at a ratio of 1:10, applied on the glass coverslips and evenly spin coated to obtain PDMS coated coverslips. These were dried at 60° C. for several hours, sterilized using 70% ethanol, and further dried under sterile conditions for at least 24 h. In order for successful single CM attachment, 1× fibronectin in ice cold ultrapure water was applied on PDMS coated coverslips and incubated for at least one hour at room temperature.\nDay 14 2D monolayers and 3D tissues were dissociated using 0.25% trypsin (EDTA) at 37° C. for 5 and 8 min, respectively. Cells were singularized by pipetting, added to RPMI20 media49, and centrifuged for 5 min at 200 g. Singularized cells were resuspended in RPMI20+5 μM ROCK inhibitor and transferred onto fibronectin coated PDMS glass coverslips. Cells were incubated for 48 h to ensure uniform cell attachment. Media was then switched to RPMI/B27 and cells maintained for 3 to 5 days. CM calcium transient recordings were obtained using an IonOptix Myocyte Calcium and Contractility Recording System. Samples were incubated in 5 μM Fura-2AM dye (Molecular Probes) in 37° C. warm Tyrode's solution (1.8 mM CaCl2, 5 mM glucose, 5 mM HEPES, 1 mM MgCl2, 5.4 mM KCl, 135 mM NaCl, and 0.33 mM NaH2PO4, pH 7.4) for 30 mM CMs were paced at frequencies from 0.5 to 2.0 Hz (0.5 Hz increments) and stimulated at 30 V. Calcium transient duration at 50% and 80% time to baseline was recorded. In addition to responses to outside electrical stimuli, response to 0.5 μM isoproterenol was studied on un-paced CMs.", "key": {"[1]": {"conditions": "0.5 μM isoproterenol, spontaneously contracting 3D cultured CMs, vs pre-isoproterenol, n=3, P<0.05"}}}
{"smiles": "CC(C)NCC(O)c1ccc(O)c(O)c1", "note": "(stereo not shown) [isoproterenol]", "values": [{"measurement": "calcium transient time to baseline 50%", "setting": "[1]", "value": "significantly shortened"}, {"measurement": "calcium transient time to baseline 80%", "setting": "[1]", "value": "significantly shortened"}, {"measurement": "spontaneous beating rate (post isoproterenol)", "setting": "0.5 μM isoproterenol, un-paced day 14 3D cultured CMs, pre-isoproterenol 33 beats per min", "value": 60, "unit": "beats per min"}, {"measurement": "spontaneous beating rate (change in words)", "setting": "spontaneously contracting 3D cultured CMs, response to isoproterenol", "value": "increased"}]}
